Here are results for 23 molecules from patent US10577332B2, “Tetrazole derivatives” (Hoffmann-La Roche Inc., priority 2015, dated 2020).

One data set addresses T1, human EAAT3 (Homo sapiens, UniProt P43005).
T1 construct: expressed in transfected cells
T1 sequence (P43005 1-524): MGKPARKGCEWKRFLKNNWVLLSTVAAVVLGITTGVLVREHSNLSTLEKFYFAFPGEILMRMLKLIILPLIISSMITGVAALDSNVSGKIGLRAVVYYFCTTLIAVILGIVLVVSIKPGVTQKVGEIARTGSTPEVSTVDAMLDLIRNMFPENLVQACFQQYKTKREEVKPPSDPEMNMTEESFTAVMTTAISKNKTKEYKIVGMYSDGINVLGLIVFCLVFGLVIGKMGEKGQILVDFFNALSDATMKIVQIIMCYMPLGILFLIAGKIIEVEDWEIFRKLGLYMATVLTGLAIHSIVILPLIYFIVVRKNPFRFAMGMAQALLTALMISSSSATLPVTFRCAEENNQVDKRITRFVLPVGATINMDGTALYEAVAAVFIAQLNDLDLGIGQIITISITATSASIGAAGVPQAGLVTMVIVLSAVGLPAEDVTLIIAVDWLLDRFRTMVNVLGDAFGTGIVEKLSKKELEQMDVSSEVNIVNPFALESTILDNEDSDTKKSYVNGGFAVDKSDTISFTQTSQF
Kind of data set: FLIPR Membrane Potential (FMP) assay. The class given is cell-based. The following applies: HEK-293 cells stably expressing human EAAT3; antagonist applied 15 min before L-glutamate at EC80; Kb by Cheng-Prusoff from IC50. The method in brief:
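HEK-293 cells stably expressing human EAAT3, loaded with membrane-potential dye 1 h at 37 °C in Krebs buffer pH 7.4. Antagonists added 15 min before L-glutamate at EC80; peak fluorescence minus basal read on FLIPR at room temperature. Kb derived from IC50 via Cheng-Prusoff.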

One may read the melting point as the temperature, or range, at which the solid turns liquid. One may read the Kb as the affinity of an antagonist, worked out from how it opposes an agonist. A higher Kb goes with a less potent antagonist. With `CC(C)(CO)NC(=O)c1cc(-c2ccc(F)cc2)cc(-n2nnnc2C2CC2)c1` [Example 71, 3-(5-Cyclopropyltetrazol-1-yl)-5-(4-fluorophenyl)-N-(1-hydroxy-2-methylpropan-2-yl)-benzamide], the melting point worked out at 80 °C. For the same molecule, the Kb at human EAAT3 turned out to be 410 nM.
For `CC(C)(NC(=O)c1cc(-c2ccc(F)cc2)cc(-n2nnnc2C2CC2)c1)C1CC1` [Example 72, N-(2-Cyclopropylpropan-2-yl)-3-(5-cyclopropyltetrazol-1-yl)-5-(4-fluorophenyl)-benzamide], in that order: 73 °C and 380 nM.
For `CC(C)(NC(=O)c1cc(-c2ccc(F)cc2)cc(-n2nnnc2C2CC2)c1)C(F)(F)F` [Example 73, 3-(5-Cyclopropyltetrazol-1-yl)-5-(4-fluorophenyl)-N-(1,1,1-trifluoro-2-methylpropan-2-yl)-benzamide], in that order: 81 °C and 110 nM.
For `CCC(C)(C)NC(=O)c1cc(-c2ccc(Cl)cc2)cc(-n2nnnc2C(F)(F)F)c1` [Example 74, 3-(4-Chlorophenyl)-N-(2-methylbutan-2-yl)-5-[5-(trifluoromethyl)-tetrazol-1-yl]-benzamide], in that order: 185 °C and 180 nM.
`CC(C)(C)NC(=O)c1cc(-c2ccc(Cl)cc2)cc(-n2nnnc2C(F)(F)F)c1` [Example 75, N-tert-Butyl-3-(4-chlorophenyl)-5-[5-(trifluoromethyl)-tetrazol-1-yl]-benzamide] showed a melting point of 186 °C. Besides, the Kb at human EAAT3 turned out to be 110 nM.
For `CC(C)(CO)NC(=O)c1cc(-c2ccc(Cl)cc2)cc(-n2nnnc2C(F)(F)F)c1` [Example 76, 3-(4-Chlorophenyl)-N-(1-hydroxy-2-methylpropan-2-yl)-5-[5-(trifluoromethyl)-tetrazol-1-yl]-benzamide], in that order: 89 °C and 300 nM.
For `CCC(C)(C)NC(=O)c1cc(-c2ccc(F)cc2)cc(-n2nnnc2C)c1` [Example 78, 3-(4-Fluorophenyl)-N-(2-methylbutan-2-yl)-5-(5-methyltetrazol-1-yl)-benzamide], in that order: 83 °C and 110 nM.
The molecule `CC(C)(NC(=O)c1cc(-c2ccc(Cl)cc2)cc(-n2nnnc2C(F)(F)F)c1)C(F)(F)F` [Example 79, 3-(4-Chlorophenyl)-N-(1,1,1-trifluoro-2-methylpropan-2-yl)-5-[5-(trifluoromethyl)tetrazol-1-yl]-benzamide] displayed a melting point of 166.5 °C. The same molecule came in with an antagonist dissociation constant (Kb) at human EAAT3 of 200 nM.
As for `Cc1nnnn1-c1cc(C(=O)NC(C)(C)C)cc(-c2ccc(F)cc2)c1` [Example 80, N-tert-Butyl-3-(4-fluorophenyl)-5-(5-methyltetrazol-1-yl)-benzamide], the melting point is 80 °C. In addition, the antagonist dissociation constant (Kb) at human EAAT3 was determined as 180 nM.
The matching figures for `CC(C)(NC(=O)c1cc(-c2ccc(Cl)cc2)cc(-n2nnnc2C2CC2)c1)C1CC1` [Example 81, 3-(4-Chlorophenyl)-N-(2-cyclopropylpropan-2-yl)-5-(5-cyclopropyl-tetrazol-1-yl)-benzamide]: 95 °C and 210 nM.
The matching figures for `CC(C)c1nnnn1-c1cc(C(=O)NC(C)(C)C2CC2)cc(-c2ccc(F)cc2)c1` [Example 82, N-(2-Cyclopropylpropan-2-yl)-3-(4-fluorophenyl)-5-(5-propan-2-yltetrazol-1-yl)-benzamide]: 75 °C and 160 nM.
The matching figures for `Cc1nnnn1-c1cc(C(=O)NC(C)(C)C2CC2)cc(-c2ccc(Cl)cc2)c1` [Example 83, 3-(4-Chlorophenyl)-N-(2-cyclopropylpropan-2-yl)-5-(5-methyltetrazol-1-yl)-benzamide]: 85 °C and 180 nM.
In the case of `Cc1nnnn1-c1cc(C(=O)NC(C)(C)CO)cc(-c2ccc(F)cc2)c1` [Example 84, 3-(4-Fluorophenyl)-N-(1-hydroxy-2-methylpropan-2-yl)-5-(5-methyltetrazol-1-yl)-benzamide], the melting point came to 85 °C. At human EAAT3, this molecule gave a Kb of 780 nM.
`Cc1nnnn1-c1cc(C(=O)NC(C)(C)C2CC2)cc(-c2ccc(F)cc2)c1` [Example 85, N-(2-Cyclopropylpropan-2-yl)-3-(4-fluorophenyl)-5-(5-methyltetrazol-1-yl)-benzamide] had a melting point of 78 °C. The Kb on human EAAT3 turned out to be 290 nM.
The matching figures for `Cc1nnnn1-c1cc(C(=O)NC(C)(C)C(F)(F)F)cc(-c2ccc(F)cc2)c1` [Example 86, 3-(4-Fluorophenyl)-5-(5-methyltetrazol-1-yl)-N-(1,1,1-trifluoro-2-methylpropan-2-yl)-benzamide]: 86 °C and 200 nM.
`CC(C)(CO)NC(=O)c1cc(-c2ccc(Cl)cc2)cc(-n2nnnc2C(C)(C)C)c1` [Example 88, 3-(5-tert-Butyltetrazol-1-yl)-5-(4-chlorophenyl)-N-(1-hydroxy-2-methylpropan-2-yl)-benzamide] gave a melting point of 112 °C. For the same molecule, the antagonist dissociation constant (Kb) on human EAAT3 was found to be 150 nM.
In turn, `CCC(C)(C)NC(=O)c1cc(-c2ccc(Cl)cc2)cc(-n2nnnc2C(C)(C)C)c1` [Example 90, 3-(5-tert-Butyltetrazol-1-yl)-5-(4-chlorophenyl)-N-(2-methylbutan-2-yl)-benzamide] came in with a melting point of 119 °C. The Kb at human EAAT3 stood at 170 nM.
For `CC(C)(C)NC(=O)c1cc(-c2ccc(Cl)cc2)cc(-n2nnnc2C(C)(C)C)c1` [Example 91, N-tert-Butyl-3-(5-tert-butyltetrazol-1-yl)-5-(4-chlorophenyl)-benzamide], in that order: 230.5 °C and 87 nM.
The matching figures for `CC(C)(C)c1nnnn1-c1cc(C(=O)NC(C)(C)C2CC2)cc(-c2ccc(Cl)cc2)c1` [Example 92, 3-(5-tert-Butyltetrazol-1-yl)-5-(4-chlorophenyl)-N-(2-cyclopropylpropan-2-yl)-benzamide]: 101 °C and 300 nM.
Take `CC(C)(C)c1nnnn1-c1cc(C(=O)NC(C)(C)C(F)(F)F)cc(-c2ccc(Cl)cc2)c1` [Example 93, 3-(5-tert-Butyltetrazol-1-yl)-5-(4-chlorophenyl)-N-(1,1,1-trifluoro-2-methylpropan-2-yl)-benzamide]: the melting point stood at 218.5 °C. This molecule also had an antagonist equilibrium constant (Kb) on human EAAT3 of 260 nM.
For `CC(C)(CO)NC(=O)c1cc(-c2ccc(F)cc2)cc(-n2nnnc2C(C)(C)C)c1` [Example 94, 3-(5-tert-Butyltetrazol-1-yl)-5-(4-fluorophenyl)-N-(1-hydroxy-2-methylpropan-2-yl)-benzamide], in that order: 212 °C and 250 nM.
On to `CC(C)(C)c1nnnn1-c1cc(C(=O)NC(C)(C)C(F)(F)F)cc(-c2ccc(F)cc2)c1` [Example 96, 3-(5-tert-Butyltetrazol-1-yl)-5-(4-fluorophenyl)-N-(1,1,1-trifluoro-2-methylpropan-2-yl)-benzamide], for which the melting point stood at 224.5 °C. The molecule further yielded an antagonist dissociation constant (Kb) at human EAAT3 of 260 nM.
The matching figures for `CCC(C)(C)NC(=O)c1cc(-c2ccc(F)cc2)cc(-n2nnnc2C(C)(C)C)c1` [Example 97, 3-(5-tert-Butyltetrazol-1-yl)-5-(4-fluorophenyl)-N-(2-methylbutan-2-yl)-benzamide]: 199 °C and 120 nM.
